What was measured:
[1] = target: T1, 5-HT1A receptor (rat hippocampus) (Rattus norvegicus, UniProt P19327); test: Radioligand binding assay, serotoninergic 5-HT1A receptors; settings: binding assay result in %, Table 5a;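 also: test compound at 1 µM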
T1 construct: hippocampus; from tissue; host or cells: rat hippocampus
T1 sequence (P19327 1-422): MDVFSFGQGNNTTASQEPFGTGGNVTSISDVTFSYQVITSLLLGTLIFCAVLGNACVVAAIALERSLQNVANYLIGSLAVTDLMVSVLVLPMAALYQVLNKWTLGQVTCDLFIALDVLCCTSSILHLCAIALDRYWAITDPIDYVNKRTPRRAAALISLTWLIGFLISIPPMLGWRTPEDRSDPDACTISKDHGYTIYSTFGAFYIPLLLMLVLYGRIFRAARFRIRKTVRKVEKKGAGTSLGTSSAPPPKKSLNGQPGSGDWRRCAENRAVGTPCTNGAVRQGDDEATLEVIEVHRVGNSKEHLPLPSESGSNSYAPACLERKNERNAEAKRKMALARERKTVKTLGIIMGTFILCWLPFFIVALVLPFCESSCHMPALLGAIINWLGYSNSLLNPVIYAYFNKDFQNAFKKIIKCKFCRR

α2C adrenergic receptors = target: T2, α2C adrenergic receptors (Homo sapiens, UniProt P18825); test: Radioligand binding assay, adrenergic α2C receptors; settings: test compound 1×10^−6 M
T2 construct: expressed in transfected cells; host or cells: CHO cells
T2 sequence (P18825 1-462): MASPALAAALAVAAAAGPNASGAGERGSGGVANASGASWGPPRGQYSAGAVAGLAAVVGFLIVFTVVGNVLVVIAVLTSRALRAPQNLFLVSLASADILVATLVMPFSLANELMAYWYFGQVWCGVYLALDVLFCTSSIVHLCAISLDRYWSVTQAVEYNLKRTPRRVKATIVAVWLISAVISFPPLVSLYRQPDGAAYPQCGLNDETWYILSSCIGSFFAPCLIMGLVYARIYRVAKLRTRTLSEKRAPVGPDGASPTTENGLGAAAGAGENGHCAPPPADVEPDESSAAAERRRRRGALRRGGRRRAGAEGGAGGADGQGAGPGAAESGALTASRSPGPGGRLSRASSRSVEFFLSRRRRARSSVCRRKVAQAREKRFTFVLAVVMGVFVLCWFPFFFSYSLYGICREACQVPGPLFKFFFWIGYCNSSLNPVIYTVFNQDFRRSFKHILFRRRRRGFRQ
Procedure, shortened: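 Competitive radioligand binding at human α2C receptors, with scintillation counting. Nonspecific binding defined with excess unlabelled ligand; results given as % inhibition of control specific binding. IC50 from Hill-equation fits of competition curves; Ki via Cheng-Prusoff using radioligand concentration and Scatchard-derived KD.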

receptors D4.4 = target: T3, receptors D4.4 (Homo sapiens, UniProt P21917); test: Radioligand binding assay, dopaminergic D4 (D4.4) receptors; settings: test compound 1×10^−6 M
T3 sequence (P21917 1-419): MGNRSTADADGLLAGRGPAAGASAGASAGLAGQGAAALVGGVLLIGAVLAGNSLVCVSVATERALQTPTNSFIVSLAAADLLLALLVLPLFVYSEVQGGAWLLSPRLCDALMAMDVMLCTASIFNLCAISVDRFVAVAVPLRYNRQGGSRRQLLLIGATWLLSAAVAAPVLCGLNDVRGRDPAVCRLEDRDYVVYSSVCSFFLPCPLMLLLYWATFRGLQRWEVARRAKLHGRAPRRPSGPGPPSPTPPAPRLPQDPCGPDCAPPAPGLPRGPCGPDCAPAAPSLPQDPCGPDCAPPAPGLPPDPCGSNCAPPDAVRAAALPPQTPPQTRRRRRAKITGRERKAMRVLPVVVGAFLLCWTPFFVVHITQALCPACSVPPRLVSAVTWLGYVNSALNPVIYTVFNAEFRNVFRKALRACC
Procedure, shortened: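 Competition radioligand binding at human D2, D3 and D4.4 receptors, detected by scintillation counting; nonspecific binding defined with excess unlabelled ligand. Results as percent inhibition of control specific binding; IC50 by Hill-equation nonlinear regression; Ki via Cheng-Prusoff, with radioligand KD from Scatchard plot.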

[2] = target: D2 dopaminergic receptors (Homo sapiens, UniProt P14416); test: Cellular functional assay, D2 dopaminergic receptors; type: cell-based; settings: D2S (h), HEK-293 cells; for D2 ag [%]: agonism, percent of control specific agonist response (3 μM dopamine for control); for D2 antag [%]: antagonism, stimulus dopamine (30 nM)
Procedure, shortened: (§1)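 Responses expressed as percent of control specific agonist response; EC50 or IC50 from Hill-equation nonlinear fits of mean replicate concentration-response curves. For antagonists, Kb derived by modified Cheng-Prusoff using reference agonist concentration and its EC50.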

[3] = target: 5-HT7 serotoninergic receptors (Homo sapiens, UniProt P34969); test: Cellular functional assay, 5-HT7 serotoninergic receptors; type: cell-based; settings: agonist mode; percent of control specific agonist response
Procedure, shortened: as §1

Chain of D2 dopaminergic receptors (P14416 whole entry): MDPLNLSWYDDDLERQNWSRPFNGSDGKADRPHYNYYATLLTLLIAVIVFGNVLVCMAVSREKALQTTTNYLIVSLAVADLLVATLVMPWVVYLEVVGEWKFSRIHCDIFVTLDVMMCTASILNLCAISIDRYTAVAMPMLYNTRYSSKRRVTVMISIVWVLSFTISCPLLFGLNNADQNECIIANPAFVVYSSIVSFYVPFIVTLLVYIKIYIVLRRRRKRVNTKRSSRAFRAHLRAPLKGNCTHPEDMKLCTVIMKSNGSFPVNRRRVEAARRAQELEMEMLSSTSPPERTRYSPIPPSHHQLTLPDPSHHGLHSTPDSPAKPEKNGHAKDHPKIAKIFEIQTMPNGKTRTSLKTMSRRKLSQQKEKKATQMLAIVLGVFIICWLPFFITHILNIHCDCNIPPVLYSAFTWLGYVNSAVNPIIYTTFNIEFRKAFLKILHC
Chain of 5-HT7 serotoninergic receptors (P34969 whole entry): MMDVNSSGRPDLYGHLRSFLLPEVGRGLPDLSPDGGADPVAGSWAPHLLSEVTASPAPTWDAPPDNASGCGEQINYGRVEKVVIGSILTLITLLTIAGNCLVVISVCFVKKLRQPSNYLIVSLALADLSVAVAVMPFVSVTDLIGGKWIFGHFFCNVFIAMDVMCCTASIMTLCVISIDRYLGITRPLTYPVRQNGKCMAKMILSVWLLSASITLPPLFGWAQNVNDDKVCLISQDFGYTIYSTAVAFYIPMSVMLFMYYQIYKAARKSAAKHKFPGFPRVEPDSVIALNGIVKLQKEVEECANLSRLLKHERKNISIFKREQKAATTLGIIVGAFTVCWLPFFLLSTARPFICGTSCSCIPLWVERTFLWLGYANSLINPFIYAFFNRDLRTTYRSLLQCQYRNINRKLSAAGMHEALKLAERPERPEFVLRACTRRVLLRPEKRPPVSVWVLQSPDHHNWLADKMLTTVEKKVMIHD

With `Cc1cccc(S(=O)(=O)NC2CCN(CCCc3c[nH]c4ccc(Cl)cc34)C2)c1` (stereo not drawn) [Compound 86, N-[1-[3-(5-chloro-1H-indol-3-yl)propyl]pyrrolidin-3-yl]-3-methyl-benzenesulphonamide] the inhibition at 1 µM [1] was 101%, the inhibition at 1 µM (α2C adrenergic receptors) was 106% and the inhibition at 1 µM (receptors D4.4) was 88%.
In the case of `CC1(C)Cc2cccc(OCCN3CCC(NS(=O)(=O)c4cccc(O)c4)C3)c2O1` (stereo not drawn) [Compound 107, N-[1-[2-[(2,2-Dimethyl-3H-benzofuran-7-yl)oxy]ethyl]pyrrolidin-3-yl]-3-hydroxybenzenesulphonamide], the inhibition at 1 µM [1] is reported as 100%, the inhibition at 1 µM (α2C adrenergic receptors) is reported as 77% and the inhibition at 1 µM (receptors D4.4) is reported as 83%.
In the case of `CC1(C)Cc2cccc(OCCN3CCC(NS(=O)(=O)c4ccc5ccccc5c4)C3)c2O1` (stereo not drawn) [Compound 108, N-[1-[2-[(2,2-Dimethyl-3H-benzofuran-7-yl)oxy]ethyl]pyrrolidin-3-yl]naphthalene-2-sulphonamide], the inhibition at 1 µM [1] is reported as 98%, the inhibition at 1 µM (α2C adrenergic receptors) is reported as 83% and the inhibition at 1 µM (receptors D4.4) is reported as 85%.
`O=S(=O)(NC1CCN(CCOc2cccc3ccccc23)C1)c1ccc2ccccc2c1` (stereo not drawn) [Compound 116, N-[1-[2-(1-Naphthyloxy)ethyl]pyrrolidin-3-yl]naphthalene-2-sulphonamide] showed an inhibition at 1 µM [1] of 99%, an inhibition at 1 µM (α2C adrenergic receptors) of 93% and an inhibition at 1 µM (receptors D4.4) of 64%.
With `O=S(=O)(NCC1CN(CCOc2cccc3ccccc23)C1)c1ccc2ccccc2c1` [Compound 122, N-[[1-[2-(1-Naphthyloxy)ethyl]azetidin-3-yl]methyl]naphthalene-2-sulphonamide] the “D2 ag [%]” value [2] was 33%, the “D2 antag [%]” value [2] was 62% and the inhibition at 1 µM [1] was 99%. For the same molecule, the “5-HT7 ag [%]” value [3] was 21%, the inhibition at 1 µM (α2C adrenergic receptors) was 101% and the inhibition at 1 µM (receptors D4.4) was 63%.
For `O=S(=O)(NCC1CCN(CCOc2cccc3ccccc23)C1)c1ccc2ccccc2c1` (stereo not drawn) [Compound 124, N-[[1-[2-(1-Naphthyloxy)ethyl]pyrrolidin-3-yl]methyl]naphthalene-2-sulphonamide], the “D2 ag [%]” value [2] was 33%, the “D2 antag [%]” value [2] was 44% and the inhibition at 1 µM [1] was 99%. For the same molecule, the “5-HT7 ag [%]” value [3] was 10%, the inhibition at 1 µM (α2C adrenergic receptors) was 95% and the inhibition at 1 µM (receptors D4.4) was 54%.
For `Cc1c(S(=O)(=O)NCC2CN(CCCc3noc4cc(F)ccc34)C2)sc2ccc(F)cc12` [Compound 130, 5-Fluoro-N-[[1-[3-(6-fluoro-1,2-benzoxazol-3-yl)propyl]azetidin-3-yl]methyl]-3-methyl-benzothiophene-2-sulphonamide], the “D2 ag [%]” value [2] was 6%, the “D2 antag [%]” value [2] was 34% and the inhibition at 1 µM [1] was 85%. The “5-HT7 ag [%]” value [3] was 0%, the inhibition at 1 µM (α2C adrenergic receptors) was 88% and the inhibition at 1 µM (receptors D4.4) was 67%.
In the case of `Cc1c(S(=O)(=O)NCC2CN(CCCc3noc4cc(F)ccc34)C2)sc2ccc(Cl)cc12` [Compound 131, 5-Chloro-N-[[1-[3-(6-fluoro-1,2-benzoxazol-3-yl)propyl]azetidin-3-yl]-methyl]-3-methyl-benzothiophene-2-sulphonamide], the “D2 ag [%]” value [2] is reported as 5%, the “D2 antag [%]” value [2] is reported as 20% and the inhibition at 1 µM [1] is reported as 87%. For the same molecule, the “5-HT7 ag [%]” value [3] was 1%, the inhibition at 1 µM (α2C adrenergic receptors) was 92% and the inhibition at 1 µM (receptors D4.4) was 50%.
Molecule `O=S(=O)(NCC1CN(CCCc2noc3cc(F)ccc23)C1)c1ccc2scnc2c1` [Compound 132, N-[[1-[3-(6-Fluoro-1,2-benzoxazol-3-yl)propyl]azetidin-3-yl]methyl]-1,3-benzothiazole-5-sulphonamide] has an inhibition at 1 µM [1] of 57%, an inhibition at 1 µM (α2C adrenergic receptors) of 73% and an inhibition at 1 µM (receptors D4.4) of 39%.
For `O=S(=O)(NCC1CN(CCCc2noc3cc(F)ccc23)C1)c1cccc2ccccc12` [Compound 133, N-[[1-[3-(6-Fluoro-1,2-benzoxazol-3-yl)propyl]azetidin-3-yl]methyl]-naphthalene-1-sulphonamide], the inhibition at 1 µM [1] was 52%, the inhibition at 1 µM (α2C adrenergic receptors) was 91% and the inhibition at 1 µM (receptors D4.4) was 88%.
For `O=S(=O)(NCC1CN(CCCc2noc3cc(F)ccc23)C1)c1ccc2ccccc2c1` [Compound 134, N-[[1-[3-(6-Fluoro-1,2-benzoxazol-3-yl)propyl]azetidin-3-yl]methyl]-naphthalene-2-sulphonamide], the “D2 ag [%]” value [2] was 6%, the “D2 antag [%]” value [2] was 47% and the inhibition at 1 µM [1] was 73%. For the same molecule, the “5-HT7 ag [%]” value [3] was 1%, the inhibition at 1 µM (α2C adrenergic receptors) was 87% and the inhibition at 1 µM (receptors D4.4) was 77%.

— patent publication US20140135310A1, “SULPHONAMIDE DERIVATIVES OF ALICYCLIC AMINES FOR THE TREATMENT OF CENTRAL NERVOUS SYSTEM DISEASES” (Adamed Sp. z o.o., priority 2011, published 2014)
